Test: (§1) The drug is tested on Z-030 corresponding to mouse gut metagenome with ENA study accession number: PRJEB37062 and ENA sample accession number: ERS12561829 for biotransformation under anaerobic condition. The drug concentrations were measured over 9 timepoints collected between 0 and 24 hours of incubation by liquid-chromatography-coupled mass spectrometry (LC–MS)
Details: 2 µM
Also: call rule not given here.

| Bacterial Biotransformation | SMILES |
| --- | --- |
| Compound NOT metabolized | CCCCCCOC(=O)/N=C(/N)c1ccc(NCc2nc3cc(C(=O)N(CCC(=O)OCC)c4ccccn4)ccc3n2C)cc1.CS(=O)(=O)O [DABIGATRAN ETEXILATE MESYLATE] |
| Compound NOT metabolized | COc1c(C)c2c(c(O)c1C/C=C(\C)CCC(=O)OCCN1CCOCC1)C(=O)OC2 [MYCOPHENOLATE MOFETIL] |

| SMILES | Bacterial Biotransformation |
| --- | --- |
| CCC(COC(=O)c1cc(OC)c(OC)c(OC)c1)(c1ccccc1)N(C)C.O=C(O)/C=C\C(=O)O (stereo unspecified) | Compound NOT metabolized |

Test: as §1, with “Z-028” for “Z-030”, “ERS12561827” for “ERS12561829”
Details: 2 µM

| Bacterial Biotransformation | SMILES |
| --- | --- |
| Compound NOT metabolized | CCCCCCOC(=O)/N=C(/N)c1ccc(NCc2nc3cc(C(=O)N(CCC(=O)OCC)c4ccccn4)ccc3n2C)cc1.CS(=O)(=O)O [DABIGATRAN ETEXILATE MESYLATE] |
| Compound metabolized | COc1c(C)c2c(c(O)c1C/C=C(\C)CCC(=O)OCCN1CCOCC1)C(=O)OC2 [MYCOPHENOLATE MOFETIL] |

| SMILES | Bacterial Biotransformation |
| --- | --- |
| CCC(COC(=O)c1cc(OC)c(OC)c(OC)c1)(c1ccccc1)N(C)C.O=C(O)/C=C\C(=O)O (stereo unspecified) | Compound metabolized |

Test: as §1, with “Z-027” for “Z-030”, “to” for “to mouse gut”, “ERS12561826” for “ERS12561829”
Details: 2 µM

| Bacterial Biotransformation | SMILES |
| --- | --- |
| Compound NOT metabolized | CCCCCCOC(=O)/N=C(/N)c1ccc(NCc2nc3cc(C(=O)N(CCC(=O)OCC)c4ccccn4)ccc3n2C)cc1.CS(=O)(=O)O [DABIGATRAN ETEXILATE MESYLATE] |
| Compound metabolized | COc1c(C)c2c(c(O)c1C/C=C(\C)CCC(=O)OCCN1CCOCC1)C(=O)OC2 [MYCOPHENOLATE MOFETIL] |

| SMILES | Bacterial Biotransformation |
| --- | --- |
| CCC(COC(=O)c1cc(OC)c(OC)c(OC)c1)(c1ccccc1)N(C)C.O=C(O)/C=C\C(=O)O (stereo unspecified) | Compound NOT metabolized |

Test: as §1, with “Z-026” for “Z-030”, “to” for “to mouse gut”, “ERS12561825” for “ERS12561829”
Details: 2 µM

| Bacterial Biotransformation | SMILES |
| --- | --- |
| Compound NOT metabolized | CCCCCCOC(=O)/N=C(/N)c1ccc(NCc2nc3cc(C(=O)N(CCC(=O)OCC)c4ccccn4)ccc3n2C)cc1.CS(=O)(=O)O [DABIGATRAN ETEXILATE MESYLATE] |
| Compound metabolized | COc1c(C)c2c(c(O)c1C/C=C(\C)CCC(=O)OCCN1CCOCC1)C(=O)OC2 [MYCOPHENOLATE MOFETIL] |

| SMILES | Bacterial Biotransformation |
| --- | --- |
| CCC(COC(=O)c1cc(OC)c(OC)c(OC)c1)(c1ccccc1)N(C)C.O=C(O)/C=C\C(=O)O (stereo unspecified) | Compound NOT metabolized |

Test: as §1, with “Z-024” for “Z-030”, “pig” for “mouse”, “ERS12561823” for “ERS12561829”
Details: 2 µM

| Bacterial Biotransformation | SMILES |
| --- | --- |
| Compound NOT metabolized | CCCCCCOC(=O)/N=C(/N)c1ccc(NCc2nc3cc(C(=O)N(CCC(=O)OCC)c4ccccn4)ccc3n2C)cc1.CS(=O)(=O)O [DABIGATRAN ETEXILATE MESYLATE] |
| Compound metabolized | COc1c(C)c2c(c(O)c1C/C=C(\C)CCC(=O)OCCN1CCOCC1)C(=O)OC2 [MYCOPHENOLATE MOFETIL] |

| SMILES | Bacterial Biotransformation |
| --- | --- |
| CCC(COC(=O)c1cc(OC)c(OC)c(OC)c1)(c1ccccc1)N(C)C.O=C(O)/C=C\C(=O)O (stereo unspecified) | Compound NOT metabolized |

Test: as §1, with “Z-020” for “Z-030”, “rabbit” for “mouse”, “ERS12561819” for “ERS12561829”
Details: 2 µM

| SMILES | Bacterial Biotransformation |
| --- | --- |
| CCC(COC(=O)c1cc(OC)c(OC)c(OC)c1)(c1ccccc1)N(C)C.O=C(O)/C=C\C(=O)O (stereo unspecified) | Compound metabolized |
| CCCCCCOC(=O)/N=C(/N)c1ccc(NCc2nc3cc(C(=O)N(CCC(=O)OCC)c4ccccn4)ccc3n2C)cc1.CS(=O)(=O)O [DABIGATRAN ETEXILATE MESYLATE] | Compound NOT metabolized |

Test: as §1, with “Z-010” for “Z-030”, “to” for “to mouse gut”, “ERS12561810” for “ERS12561829”
Details: 2 µM

| Bacterial Biotransformation | SMILES |
| --- | --- |
| Compound NOT metabolized | CCCCCCOC(=O)/N=C(/N)c1ccc(NCc2nc3cc(C(=O)N(CCC(=O)OCC)c4ccccn4)ccc3n2C)cc1.CS(=O)(=O)O [DABIGATRAN ETEXILATE MESYLATE] |
| Compound metabolized | COc1c(C)c2c(c(O)c1C/C=C(\C)CCC(=O)OCCN1CCOCC1)C(=O)OC2 [MYCOPHENOLATE MOFETIL] |

Test: as §1, with “Z-004” for “Z-030”, “to” for “to mouse gut”, “ERS12561804” for “ERS12561829”
Details: 2 µM

| Bacterial Biotransformation | SMILES |
| --- | --- |
| Compound NOT metabolized | CCCCCCOC(=O)/N=C(/N)c1ccc(NCc2nc3cc(C(=O)N(CCC(=O)OCC)c4ccccn4)ccc3n2C)cc1.CS(=O)(=O)O [DABIGATRAN ETEXILATE MESYLATE] |
| Compound metabolized | COc1c(C)c2c(c(O)c1C/C=C(\C)CCC(=O)OCCN1CCOCC1)C(=O)OC2 [MYCOPHENOLATE MOFETIL] |

| SMILES | Bacterial Biotransformation |
| --- | --- |
| CCC(COC(=O)c1cc(OC)c(OC)c(OC)c1)(c1ccccc1)N(C)C.O=C(O)/C=C\C(=O)O (stereo unspecified) | Compound NOT metabolized |

Test: as §1, with “Z-002” for “Z-030”, “rabbit” for “mouse”, “ERS12561802” for “ERS12561829”
Details: 2 µM

| Bacterial Biotransformation | SMILES |
| --- | --- |
| Compound NOT metabolized | CCCCCCOC(=O)/N=C(/N)c1ccc(NCc2nc3cc(C(=O)N(CCC(=O)OCC)c4ccccn4)ccc3n2C)cc1.CS(=O)(=O)O [DABIGATRAN ETEXILATE MESYLATE] |
| Compound metabolized | COc1c(C)c2c(c(O)c1C/C=C(\C)CCC(=O)OCCN1CCOCC1)C(=O)OC2 [MYCOPHENOLATE MOFETIL] |

| SMILES | Bacterial Biotransformation |
| --- | --- |
| CCC(COC(=O)c1cc(OC)c(OC)c(OC)c1)(c1ccccc1)N(C)C.O=C(O)/C=C\C(=O)O (stereo unspecified) | Compound NOT metabolized |

Test: as §1, with “Z-001” for “Z-030”, “ERS12561801” for “ERS12561829”
Details: 2 µM

| Bacterial Biotransformation | SMILES |
| --- | --- |
| Compound NOT metabolized | CCCCCCOC(=O)/N=C(/N)c1ccc(NCc2nc3cc(C(=O)N(CCC(=O)OCC)c4ccccn4)ccc3n2C)cc1.CS(=O)(=O)O [DABIGATRAN ETEXILATE MESYLATE] |
| Compound metabolized | COc1c(C)c2c(c(O)c1C/C=C(\C)CCC(=O)OCCN1CCOCC1)C(=O)OC2 [MYCOPHENOLATE MOFETIL] |

| SMILES | Bacterial Biotransformation |
| --- | --- |
| CCC(COC(=O)c1cc(OC)c(OC)c(OC)c1)(c1ccccc1)N(C)C.O=C(O)/C=C\C(=O)O (stereo unspecified) | Compound NOT metabolized |

Test: as §1, with “WLS-370” for “Z-030”, “human” for “mouse”, “ERS12561793” for “ERS12561829”
Details: 2 µM

| Bacterial Biotransformation | SMILES |
| --- | --- |
| Compound NOT metabolized | CCCCCCOC(=O)/N=C(/N)c1ccc(NCc2nc3cc(C(=O)N(CCC(=O)OCC)c4ccccn4)ccc3n2C)cc1.CS(=O)(=O)O [DABIGATRAN ETEXILATE MESYLATE] |
| Compound metabolized | COc1c(C)c2c(c(O)c1C/C=C(\C)CCC(=O)OCCN1CCOCC1)C(=O)OC2 [MYCOPHENOLATE MOFETIL] |

| SMILES | Bacterial Biotransformation |
| --- | --- |
| CCC(COC(=O)c1cc(OC)c(OC)c(OC)c1)(c1ccccc1)N(C)C.O=C(O)/C=C\C(=O)O (stereo unspecified) | Compound NOT metabolized |

Test: as §1, with “WLS-170” for “Z-030”, “human” for “mouse”, “ERS12561762” for “ERS12561829”
Details: 2 µM

| SMILES | Bacterial Biotransformation |
| --- | --- |
| CCC(COC(=O)c1cc(OC)c(OC)c(OC)c1)(c1ccccc1)N(C)C.O=C(O)/C=C\C(=O)O (stereo unspecified) | Compound metabolized |
| COc1c(C)c2c(c(O)c1C/C=C(\C)CCC(=O)OCCN1CCOCC1)C(=O)OC2 [MYCOPHENOLATE MOFETIL] | Compound metabolized |

Test: as §1, with “WLS-090” for “Z-030”, “human” for “mouse”, “ERS12561753” for “ERS12561829”
Details: 2 µM

| SMILES | Bacterial Biotransformation |
| --- | --- |
| CCC(COC(=O)c1cc(OC)c(OC)c(OC)c1)(c1ccccc1)N(C)C.O=C(O)/C=C\C(=O)O (stereo unspecified) | Compound NOT metabolized |
| COc1c(C)c2c(c(O)c1C/C=C(\C)CCC(=O)OCCN1CCOCC1)C(=O)OC2 [MYCOPHENOLATE MOFETIL] | Compound metabolized |

Details: human gut metagenome, 24 h, 2 µM

| Bacterial Biotransformation | SMILES |
| --- | --- |
| Compound NOT metabolized | CCCCCCOC(=O)/N=C(/N)c1ccc(NCc2nc3cc(C(=O)N(CCC(=O)OCC)c4ccccn4)ccc3n2C)cc1.CS(=O)(=O)O [DABIGATRAN ETEXILATE MESYLATE] |
| Compound metabolized | COc1c(C)c2c(c(O)c1C/C=C(\C)CCC(=O)OCCN1CCOCC1)C(=O)OC2 [MYCOPHENOLATE MOFETIL] |

| SMILES | Bacterial Biotransformation |
| --- | --- |
| CCC(COC(=O)c1cc(OC)c(OC)c(OC)c1)(c1ccccc1)N(C)C.O=C(O)/C=C\C(=O)O (stereo unspecified) | Compound NOT metabolized |

Details: human gut metagenome, 24 h, 2 µM
Remark: another data set of the same source

| SMILES | Bacterial Biotransformation |
| --- | --- |
| CCC(COC(=O)c1cc(OC)c(OC)c(OC)c1)(c1ccccc1)N(C)C.O=C(O)/C=C\C(=O)O (stereo unspecified) | Compound metabolized |
| COc1c(C)c2c(c(O)c1C/C=C(\C)CCC(=O)OCCN1CCOCC1)C(=O)OC2 [MYCOPHENOLATE MOFETIL] | Compound metabolized |

Details: human gut metagenome, 24 h, 2 µM
Remark: another data set of the same source

| SMILES | Bacterial Biotransformation |
| --- | --- |
| CCC(COC(=O)c1cc(OC)c(OC)c(OC)c1)(c1ccccc1)N(C)C.O=C(O)/C=C\C(=O)O (stereo unspecified) | Compound metabolized |
| COc1c(C)c2c(c(O)c1C/C=C(\C)CCC(=O)OCCN1CCOCC1)C(=O)OC2 [MYCOPHENOLATE MOFETIL] | Compound metabolized |

Details: human gut metagenome, 24 h, 2 µM
Remark: another data set of the same source

| SMILES | Bacterial Biotransformation |
| --- | --- |
| CCC(COC(=O)c1cc(OC)c(OC)c(OC)c1)(c1ccccc1)N(C)C.O=C(O)/C=C\C(=O)O (stereo unspecified) | Compound NOT metabolized |
| COc1c(C)c2c(c(O)c1C/C=C(\C)CCC(=O)OCCN1CCOCC1)C(=O)OC2 [MYCOPHENOLATE MOFETIL] | Compound NOT metabolized |

Details: human gut metagenome, 24 h, 2 µM
Remark: another data set of the same source

| SMILES | Bacterial Biotransformation |
| --- | --- |
| CCC(COC(=O)c1cc(OC)c(OC)c(OC)c1)(c1ccccc1)N(C)C.O=C(O)/C=C\C(=O)O (stereo unspecified) | Compound metabolized |
| COc1c(C)c2c(c(O)c1C/C=C(\C)CCC(=O)OCCN1CCOCC1)C(=O)OC2 [MYCOPHENOLATE MOFETIL] | Compound metabolized |

Details: human gut metagenome, 24 h, 2 µM
Remark: another data set of the same source

| SMILES | Bacterial Biotransformation |
| --- | --- |
| CCC(COC(=O)c1cc(OC)c(OC)c(OC)c1)(c1ccccc1)N(C)C.O=C(O)/C=C\C(=O)O (stereo unspecified) | Compound metabolized |
| COc1c(C)c2c(c(O)c1C/C=C(\C)CCC(=O)OCCN1CCOCC1)C(=O)OC2 [MYCOPHENOLATE MOFETIL] | Compound metabolized |

Details: human gut metagenome, 24 h, 2 µM
Remark: another data set of the same source

| Bacterial Biotransformation | SMILES |
| --- | --- |
| Compound metabolized | CCCCCCOC(=O)/N=C(/N)c1ccc(NCc2nc3cc(C(=O)N(CCC(=O)OCC)c4ccccn4)ccc3n2C)cc1.CS(=O)(=O)O [DABIGATRAN ETEXILATE MESYLATE] |
| Compound metabolized | COc1c(C)c2c(c(O)c1C/C=C(\C)CCC(=O)OCCN1CCOCC1)C(=O)OC2 [MYCOPHENOLATE MOFETIL] |

| SMILES | Bacterial Biotransformation |
| --- | --- |
| CCC(COC(=O)c1cc(OC)c(OC)c(OC)c1)(c1ccccc1)N(C)C.O=C(O)/C=C\C(=O)O (stereo unspecified) | Compound NOT metabolized |

— ChEMBL document CHEMBL5724914, “Linking interpersonal differences in gut microbiota composition and drug biotransformation activity” (2024)
